Measured values as given in ChEMBL document CHEMBL1201862, “PubChem BioAssay data set” (2004).
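Interpolation was linear, between the two tested concentrations surrounding the appropriate level; five concentrations were tested over 48 hours in 96-well plates. GI50 marks 50% less growth.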 The source made the active and inactive calls. No stated cut-off is given here; in the data, active = GI50 up to about 1.1 µM and inactive = higher.

Columns and labels:
Test in all cases: NCI tumour cell line growth inhibition, 48 h
NCI-H460 = test system: NCI-H460
HCT-15 = test system: HCT-15
NCI-H226 = test system: NCI-H226
UACC-257 = test system: UACC-257
SNB-19 = test system: SNB-19
KM12 = test system: KM12
UO-31 = test system: UO-31
PC-3 = test system: PC-3
COLO 205 = test system: COLO 205
OVCAR-8 = test system: OVCAR-8
NCI-H522 = test system: NCI-H522
OVCAR-5 = test system: OVCAR-5
SF-295 = test system: SF-295
CAKI-1 = test system: CAKI-1
BT-549 = test system: BT-549
MOLT-4 = test system: MOLT-4
RXF 393 = test system: RXF 393
OVCAR-3 = test system: OVCAR-3
SK-MEL-2 = test system: SK-MEL-2
HOP-92 = test system: HOP-92

Row | SMILES | GI50 (NCI-H460) | GI50 (HCT-15) | GI50 (NCI-H226) | GI50 (UACC-257) | GI50 (SNB-19) | GI50 (KM12) | GI50 (UO-31) | GI50 (PC-3) | GI50 (COLO 205) | GI50 (OVCAR-8) | GI50 (NCI-H522) | GI50 (OVCAR-5) | GI50 (SF-295) | GI50 (CAKI-1) | GI50 (BT-549) | GI50 (MOLT-4) | GI50 (RXF 393) | GI50 (OVCAR-3) | GI50 (SK-MEL-2) | GI50 (HOP-92)
1 | O=c1[nH]c(=O)n(C2CC(O)C(CO)O2)cc1OCCc1ccccc1 (stereo not drawn) | > 10 µM (inactive) | > 100 µM | > 100 µM (inactive) | > 100 µM (inactive) | > 100 µM (inactive) | > 100 µM (inactive) | > 100 µM (inactive) | > 100 µM (inactive) | > 100 µM (inactive) | > 100 µM (inactive) | > 100 µM (inactive) | > 100 µM (inactive) | > 100 µM (inactive) | > 100 µM (inactive) | > 100 µM (inactive) | > 100 µM (inactive) | > 100 µM (inactive) | > 100 µM (inactive) | – | –
2 | O=C(O)CCC(NC(=O)c1ccc(Nc2nc3ccccc3nc2-c2cccs2)cc1)C(=O)O (stereo not drawn) | > 100 µM (inactive) | > 100 µM | > 100 µM (inactive) | > 100 µM (inactive) | > 100 µM (inactive) | > 100 µM (inactive) | > 100 µM (inactive) | – | – | > 100 µM (inactive) | > 100 µM (inactive) | > 100 µM (inactive) | > 100 µM (inactive) | > 100 µM (inactive) | – | > 100 µM (inactive) | > 100 µM (inactive) | > 100 µM (inactive) | > 100 µM (inactive) | > 100 µM (inactive)
3 | COc1ccc(/N=N/c2c(C)c(C#N)c(=S)n(C3OC(CO)C(O)C(O)C3O)c2-c2ccccc2)cc1 (stereo not drawn) | 31.3 µM (inactive) | 34 µM | – | 48.8 µM (inactive) | 41.3 µM (inactive) | 43.5 µM (inactive) | 39.4 µM (inactive) | 17.1 µM (inactive) | 47.5 µM (inactive) | – | – | 36.9 µM (inactive) | 30.8 µM (inactive) | 24.2 µM (inactive) | 38 µM (inactive) | 9.04 µM (inactive) | 28 µM (inactive) | 24.7 µM (inactive) | 33 µM (inactive) | –
4 | COc1ccc(N[S+]([O-])CCCc2ccccc2)cc1 (stereo not drawn) | > 100 µM (inactive) | 64 µM | > 100 µM (inactive) | 65 µM (inactive) | > 100 µM (inactive) | 34.8 µM (inactive) | 38.7 µM (inactive) | – | > 100 µM (inactive) | > 100 µM (inactive) | 24.1 µM (inactive) | > 100 µM (inactive) | > 100 µM (inactive) | – | 4.16 µM (inactive) | > 100 µM (inactive) | – | 88.7 µM (inactive) | > 100 µM (inactive) | –
5 | COC1=C(OC)C(=O)C(Cc2c(C)nc3sccn23)=C(C)C1=O | 20 µM (inactive) | 16.5 µM | – | 5.65 µM (inactive) | 16 µM (inactive) | 15.2 µM (inactive) | 13.6 µM (inactive) | 16.3 µM (inactive) | 12.6 µM (inactive) | 14.9 µM (inactive) | 6.64 µM (inactive) | 16.8 µM (inactive) | 15 µM (inactive) | 17.9 µM (inactive) | 16.1 µM (inactive) | 2.01 µM (inactive) | 22.8 µM (inactive) | 15 µM (inactive) | 16.6 µM (inactive) | –
6 | CC(C)(C)C1=NN=C2c3ccccc3C(=O)C21 (stereo not drawn) | 43.9 µM (inactive) | 29.4 µM | 41.7 µM (inactive) | 62.7 µM (inactive) | 91.2 µM (inactive) | 18.9 µM (inactive) | 4.78 µM (inactive) | 35.6 µM (inactive) | 37.8 µM (inactive) | 43.6 µM (inactive) | 35.4 µM (inactive) | 51.8 µM (inactive) | 39.1 µM (inactive) | 26.4 µM (inactive) | – | 22.4 µM (inactive) | 81.3 µM (inactive) | 37.6 µM (inactive) | 39.8 µM (inactive) | 15.5 µM (inactive)
7 | CCc1ccccc1NC(=O)CCc1nnc(S)[nH]1 | > 100 µM (inactive) | > 100 µM | > 100 µM (inactive) | > 100 µM (inactive) | > 100 µM (inactive) | > 100 µM (inactive) | > 100 µM (inactive) | – | > 100 µM (inactive) | > 100 µM (inactive) | > 100 µM (inactive) | > 100 µM (inactive) | > 100 µM (inactive) | > 100 µM (inactive) | – | > 100 µM (inactive) | > 100 µM (inactive) | > 100 µM (inactive) | > 100 µM (inactive) | > 100 µM (inactive)
8 | Cc1csc(NNC(=O)Nc2ccccc2)n1 | > 100 µM (inactive) | > 100 µM | > 100 µM (inactive) | > 100 µM (inactive) | > 100 µM (inactive) | > 100 µM (inactive) | 45.7 µM (inactive) | > 100 µM (inactive) | > 100 µM (inactive) | > 100 µM (inactive) | > 100 µM (inactive) | > 100 µM (inactive) | > 100 µM (inactive) | > 100 µM (inactive) | – | – | > 100 µM (inactive) | – | > 100 µM (inactive) | –
